Laboratory results: patent publication US9079895B2, “Morpholino compounds, uses and methods” (University of Dundee, priority 2012, dated 2015)

How the values were obtained:
Conditions in all cases: average of at least two experiments
dopamine D1 receptor = dopamine D1 receptor (Homo sapiens (Human), UniProt P21728); test: Secondary radioligand binding assay, D1; parameters: key to Ki D1: “—” indicates that a binding interaction was not detected
Protocol: (§1) 1. Secondary Radioligand Binding Assays
(§2) The detailed experimental protocols for the radioligand and functional receptor assays are available on the NIMH PDSP website at http://pdsp.med.unc.edu/UNC-CH %20Protocol %20Book.pdf.
(§3) Radioligand is diluted to five times the assay concentration (see Table 18) in Standard Binding Buffer. Typically, the assay concentration of radioligand is a value between one half the KD and the KD of a particular radioligand at its target. 50 μl aliquots of radioligand are dispensed into the wells of a 96-well plate containing 100 μl of Standard Binding Buffer. Then, duplicate 50 μl aliquots of the test and reference compound dilutions are added.
(§4) The 250 μl reactions are incubated at room temperature and shielded from light (to prevent photolysis of light-sensitive ligands) for 1.5 hours, then harvested by rapid filtration onto Whatman GF/B glass fiber filters pre-soaked with 0.3% polyethyleneimine using a 96-well Brandel harverster. Four rapid 500 μl washes are performed with chilled Standard Binding Buffer to reduce non-specific binding. Filters are placed in 6 ml scintillation tubes and allowed to dry overnight. The next day, 4 ml of EcoScint scintillation cocktail (National Diagnostics) are added to each tube. The tubes are capped, labeled, and counted by liquid scintillation counting. […] The filter mats are dried, then scintillant is melted onto the filters and the radioactivity retained on the filters is counted in a Microbeta scintillation counter.
(§5) Raw data (dpm) representing total radioligand binding (i.e. specific+non-specific binding) are plotted as a function of the logarithm of the molar concentration of the competitor (i.e. test or reference compound).
(§6) B. Dopamine Receptors: D1, D2, D3, D4, D5 Assay Buffers: Dopamine Binding Buffer (50 mM NaCl, 50 mM HEPES-HCl, 5 mM MgCl2, 0.5 mM EDTA, pH 7.4) Membrane Fraction Source: Transiently or stably transfected cell lines (e.g. HEK293, COS, CHO, NIH3T3)
(§7) The method is carried out in the manner described for the serotonin receptor assay above. Eleven dilutions (5× assay concentration) of the test and reference (see Table 19) compounds are prepared in Dopamine Binding Buffer by serial dilution, as previously described. Radioligand is diluted to five times the assay concentration (see Table 20) in Dopamine Binding Buffer.

5HT1e receptor = 5HT1e receptor (Homo sapiens (Human), UniProt P28566); test: Secondary radioligand binding assay, 5HT1e; parameters: key: “—” indicates that a binding interaction was not detected;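 further: competition binding against a radioligand on membranes from transfected cell lines, 1.5 h at room temperature, bound radioactivity counted by liquid scintillation after filtration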
Protocol: (§8) Assay Buffer: Standard Binding Buffer (50 mM Tris-HCl, 10 mM MgCl2, 1 mM EDTA, pH 7.4)
(§9) Membrane Fraction Source: Transiently or stably transfected cell lines (e.g., HEK293, COS, CHO, NIH3T3)

5HT5 receptor = 5HT5 receptor (Homo sapiens (Human), UniProt P47898); test: Secondary radioligand binding assay, 5HT5; parameters: key: “—” indicates that a binding interaction was not detected;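 further: competitive radioligand displacement on membranes from transfected cell lines, incubated at room temperature in the dark, filter-retained radioactivity counted by liquid scintillation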
Protocol: as §8, §9

dopamine D3 receptor = dopamine D3 receptor (Homo sapiens (Human), UniProt P35462); test: Secondary radioligand binding assay, D3; parameters: key to Ki D3: “—” indicates that a binding interaction was not detected
Protocol: as §1, §2, §3, §4, §5, §6, §7

5HT3 receptor = 5HT3 receptor (Homo sapiens (Human), UniProt P46098); test: Secondary radioligand binding assay, 5HT3; parameters: key: “—” indicates that a binding interaction was not detected;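 further: radioligand competition binding on membranes from transfected cell lines, 1.5 h incubation at room temperature, filter-retained radioactivity measured by liquid scintillation counting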
Protocol: as §8, §9

5HT2b receptor = 5HT2b receptor (Homo sapiens (Human), UniProt P41595); test: Secondary radioligand binding assay, 5HT2b; parameters: key to Ki 5HT2b: “—” indicates that a binding interaction was not detected;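 further: competition binding against a radioligand on membranes from transfected cell lines, 1.5 h incubation at room temperature, filter-retained radioactivity counted by liquid scintillation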
Protocol: as §8, §9

5HT7 receptor = 5HT7 receptor (Homo sapiens (Human), UniProt P34969); test: Secondary radioligand binding assay, 5HT7; parameters: key to Ki 5HT7: “—” indicates that a binding interaction was not detected;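 further: competition of test compound with radioligand for binding to membranes from transfected cell lines, 1.5 h incubation at room temperature, filter-bound radioactivity read by liquid scintillation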
Protocol: as §8, §9

dopamine D5 receptor = dopamine D5 receptor (Homo sapiens (Human), UniProt P21918); test: Secondary radioligand binding assay, D5; parameters: key to Ki D5: “—” indicates that a binding interaction was not detected
Protocol: as §1, §2, §3, §4, §5, §6, §7

5HT1d receptor = 5HT1d receptor (Homo sapiens (Human), UniProt P28221); test: Secondary radioligand binding assay, 5HT1d; parameters: key to Ki 5HT1d: “—” indicates that a binding interaction was not detected;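 further: competition binding against a radioligand on membranes from transfected cell lines, 1.5 h at room temperature, filter-retained radioactivity counted by liquid scintillation, total binding plotted versus log competitor concentration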
Protocol: as §8, §9

5HT6 receptor = 5HT6 receptor (Homo sapiens (Human), UniProt P50406); test: Secondary radioligand binding assay, 5HT6; parameters: key: “—” indicates that a binding interaction was not detected;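 further: competition displacement of radioligand from membranes of transfected cell lines expressing the receptor, 1.5 h at room temperature, bound radioactivity counted by scintillation after filtration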
Protocol: as §8, §9

[1] = target: Alpha1B adrenergic receptor (Homo sapiens (Human), UniProt P35368); test: Secondary radioligand binding assay, Alpha1B; parameters: key to Ki Alpha1B: “—” indicates that a binding interaction was not detected
Description: 1. Secondary Radioligand Binding Assays The detailed experimental protocols for the radioligand and functional receptor assays are available on the NIMH PDSP website at http://pdsp.med.unc.edu/UNC-CH %20Protocol %20Book.pdf. Raw data (dpm) representing total radioligand binding (i.e. specific+non-specific binding) are plotted as a function of the logarithm of the molar concentration of the competitor (i.e. test or reference compound). […] C. Adrenergic Receptors: α1A, α1B, α2A, α2B, α2C, β1, β2, β3 Assay Buffers: For α1 receptors, α1 Binding Buffer (20 mM Tris-HCl, 145 mM NaCl, pH 7.4); for α2 receptors, α2 Binding Buffer (50 mM Tris-HCl, 5 mM MgCl2, pH 7.7); for β receptors, β Binding Buffer (50 mM Tris-HCl, 3 mM MnCl2, pH 7.7) Membrane Fraction Source: Transiently or stably transfected cell lines (e.g. HEK293, COS, CHO, NIH3T3) Protocol adapted from Arango et al. […] (1990), Gen. Psychiatry, 47: 1038-1047. The method is carried out in the manner described for the serotonin receptor assay above, except where described below. Eleven dilutions (5× assay concentration) of the test and reference (see Table 20) compounds are prepared in the appropriate buffer by serial dilution, as previously described. Radioligand is diluted to five times the assay concentration (see Table 21) in the appropriate buffer. […] Four rapid 500-μl washes are performed with chilled distilled water (for α1 and β receptors) or 0.1% polyethyleneimine (for α2 receptors) to reduce non-specific binding. Filters are placed in 6 ml scintillation tubes and allowed to dry overnight and the samples are treated to obtain data as described above. [table]

Chain of dopamine D5 receptor (P21918 whole entry): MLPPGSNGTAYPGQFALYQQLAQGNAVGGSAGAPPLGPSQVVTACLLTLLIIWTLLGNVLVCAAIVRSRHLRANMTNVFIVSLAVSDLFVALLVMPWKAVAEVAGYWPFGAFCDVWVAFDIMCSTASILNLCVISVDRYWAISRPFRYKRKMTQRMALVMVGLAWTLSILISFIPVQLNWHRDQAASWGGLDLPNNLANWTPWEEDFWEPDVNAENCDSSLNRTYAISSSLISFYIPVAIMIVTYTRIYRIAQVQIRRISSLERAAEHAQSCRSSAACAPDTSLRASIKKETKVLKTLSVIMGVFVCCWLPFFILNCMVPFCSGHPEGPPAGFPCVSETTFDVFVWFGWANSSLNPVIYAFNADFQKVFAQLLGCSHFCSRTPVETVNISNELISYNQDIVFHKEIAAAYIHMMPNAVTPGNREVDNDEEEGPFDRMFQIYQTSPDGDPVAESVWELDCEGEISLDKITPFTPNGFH
Chain of 5HT1e receptor (P28566 whole entry): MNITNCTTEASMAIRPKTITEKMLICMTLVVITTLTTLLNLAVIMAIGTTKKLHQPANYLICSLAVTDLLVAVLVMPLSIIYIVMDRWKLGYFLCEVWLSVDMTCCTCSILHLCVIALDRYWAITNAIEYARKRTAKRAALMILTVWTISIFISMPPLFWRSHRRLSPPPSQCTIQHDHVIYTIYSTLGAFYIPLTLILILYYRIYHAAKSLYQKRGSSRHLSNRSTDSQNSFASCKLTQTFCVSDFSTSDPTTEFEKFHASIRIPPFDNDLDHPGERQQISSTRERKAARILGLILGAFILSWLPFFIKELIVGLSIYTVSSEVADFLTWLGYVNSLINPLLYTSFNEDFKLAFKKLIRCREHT
Chain of dopamine D1 receptor (P21728 whole entry): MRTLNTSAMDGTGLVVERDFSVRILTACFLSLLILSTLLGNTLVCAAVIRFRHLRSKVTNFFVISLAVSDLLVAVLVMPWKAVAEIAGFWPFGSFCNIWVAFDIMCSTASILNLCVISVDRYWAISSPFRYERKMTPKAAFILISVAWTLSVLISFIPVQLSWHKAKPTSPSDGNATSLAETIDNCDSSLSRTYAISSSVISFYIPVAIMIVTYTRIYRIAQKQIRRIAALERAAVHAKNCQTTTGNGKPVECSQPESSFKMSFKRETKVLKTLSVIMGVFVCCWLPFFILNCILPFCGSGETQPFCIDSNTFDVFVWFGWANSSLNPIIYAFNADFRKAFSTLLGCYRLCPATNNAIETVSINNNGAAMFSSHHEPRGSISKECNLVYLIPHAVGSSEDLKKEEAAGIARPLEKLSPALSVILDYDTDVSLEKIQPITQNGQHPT
Chain of 5HT5 receptor (P47898 whole entry): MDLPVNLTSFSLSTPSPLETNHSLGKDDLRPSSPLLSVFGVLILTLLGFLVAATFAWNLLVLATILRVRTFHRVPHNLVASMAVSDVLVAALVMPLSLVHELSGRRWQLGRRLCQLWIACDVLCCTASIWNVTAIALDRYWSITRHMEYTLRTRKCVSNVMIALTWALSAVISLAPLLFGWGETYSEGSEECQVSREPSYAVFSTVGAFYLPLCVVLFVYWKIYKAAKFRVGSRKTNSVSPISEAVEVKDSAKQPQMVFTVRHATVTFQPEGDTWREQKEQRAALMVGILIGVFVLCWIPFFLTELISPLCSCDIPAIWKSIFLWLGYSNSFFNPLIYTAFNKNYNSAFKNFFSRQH
Chain of 5HT2b receptor (P41595 whole entry): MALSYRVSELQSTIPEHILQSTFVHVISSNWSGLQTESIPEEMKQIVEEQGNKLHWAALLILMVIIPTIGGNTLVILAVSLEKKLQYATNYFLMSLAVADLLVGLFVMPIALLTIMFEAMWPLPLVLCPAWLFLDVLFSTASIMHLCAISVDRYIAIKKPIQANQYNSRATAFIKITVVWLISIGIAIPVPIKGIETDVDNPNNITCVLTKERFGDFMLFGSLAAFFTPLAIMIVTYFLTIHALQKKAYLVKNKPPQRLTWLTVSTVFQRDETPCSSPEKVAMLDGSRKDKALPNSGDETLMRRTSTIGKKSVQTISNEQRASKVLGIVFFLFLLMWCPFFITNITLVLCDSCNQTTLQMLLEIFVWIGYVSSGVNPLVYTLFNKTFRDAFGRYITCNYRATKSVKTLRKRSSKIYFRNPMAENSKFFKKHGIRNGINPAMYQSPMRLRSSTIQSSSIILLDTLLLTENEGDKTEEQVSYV
Chain of 5HT7 receptor (P34969 whole entry): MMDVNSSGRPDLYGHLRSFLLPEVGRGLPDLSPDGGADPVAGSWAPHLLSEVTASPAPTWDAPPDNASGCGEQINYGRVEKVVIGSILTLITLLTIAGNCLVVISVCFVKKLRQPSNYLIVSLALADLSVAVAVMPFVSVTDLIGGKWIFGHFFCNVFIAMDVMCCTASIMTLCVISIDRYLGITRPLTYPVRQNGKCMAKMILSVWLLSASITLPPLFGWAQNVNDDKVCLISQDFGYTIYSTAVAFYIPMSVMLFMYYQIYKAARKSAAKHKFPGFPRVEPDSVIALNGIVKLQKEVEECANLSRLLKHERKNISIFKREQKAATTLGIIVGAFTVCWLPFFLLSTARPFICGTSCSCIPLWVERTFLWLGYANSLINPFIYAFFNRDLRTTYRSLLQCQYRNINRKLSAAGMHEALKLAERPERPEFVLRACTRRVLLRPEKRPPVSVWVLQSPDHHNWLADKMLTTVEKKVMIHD
Chain of dopamine D3 receptor (P35462 whole entry, species assumed): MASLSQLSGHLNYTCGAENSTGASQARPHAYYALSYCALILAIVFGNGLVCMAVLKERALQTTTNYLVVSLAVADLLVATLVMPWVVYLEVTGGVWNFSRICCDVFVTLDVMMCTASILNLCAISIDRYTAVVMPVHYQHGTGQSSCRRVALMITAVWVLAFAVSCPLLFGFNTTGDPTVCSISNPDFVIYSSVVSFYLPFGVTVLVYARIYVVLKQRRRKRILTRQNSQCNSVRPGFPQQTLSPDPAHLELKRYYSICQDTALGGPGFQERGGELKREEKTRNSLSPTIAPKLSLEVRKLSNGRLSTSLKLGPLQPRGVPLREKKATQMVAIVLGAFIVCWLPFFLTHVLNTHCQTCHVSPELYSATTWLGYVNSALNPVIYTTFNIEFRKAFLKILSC
Chain of Alpha1B adrenergic receptor (P35368 whole entry): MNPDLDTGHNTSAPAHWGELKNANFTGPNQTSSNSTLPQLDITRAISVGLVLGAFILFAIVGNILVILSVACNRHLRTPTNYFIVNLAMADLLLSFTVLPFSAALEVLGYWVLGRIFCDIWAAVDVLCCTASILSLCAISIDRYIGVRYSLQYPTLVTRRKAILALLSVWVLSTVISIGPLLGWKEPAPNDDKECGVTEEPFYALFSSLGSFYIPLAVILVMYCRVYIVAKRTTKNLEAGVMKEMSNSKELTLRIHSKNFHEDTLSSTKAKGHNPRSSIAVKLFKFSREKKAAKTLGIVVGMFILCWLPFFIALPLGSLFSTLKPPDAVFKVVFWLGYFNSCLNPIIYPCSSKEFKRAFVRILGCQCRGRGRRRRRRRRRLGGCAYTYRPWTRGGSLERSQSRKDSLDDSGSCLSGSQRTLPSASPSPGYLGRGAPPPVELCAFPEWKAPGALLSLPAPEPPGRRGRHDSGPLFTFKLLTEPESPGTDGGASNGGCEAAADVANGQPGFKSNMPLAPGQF
Chain of 5HT1d receptor (P28221 whole entry): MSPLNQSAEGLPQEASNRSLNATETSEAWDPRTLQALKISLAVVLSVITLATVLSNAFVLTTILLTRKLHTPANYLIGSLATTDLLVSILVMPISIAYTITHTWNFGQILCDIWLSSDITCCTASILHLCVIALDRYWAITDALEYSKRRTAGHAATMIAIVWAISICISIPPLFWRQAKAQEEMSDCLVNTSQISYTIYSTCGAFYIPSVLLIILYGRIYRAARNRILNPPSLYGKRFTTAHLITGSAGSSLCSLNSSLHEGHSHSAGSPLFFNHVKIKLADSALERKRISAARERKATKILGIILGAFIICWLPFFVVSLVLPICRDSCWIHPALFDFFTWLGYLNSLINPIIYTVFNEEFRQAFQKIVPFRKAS
Chain of 5HT3 receptor (P46098 24-478): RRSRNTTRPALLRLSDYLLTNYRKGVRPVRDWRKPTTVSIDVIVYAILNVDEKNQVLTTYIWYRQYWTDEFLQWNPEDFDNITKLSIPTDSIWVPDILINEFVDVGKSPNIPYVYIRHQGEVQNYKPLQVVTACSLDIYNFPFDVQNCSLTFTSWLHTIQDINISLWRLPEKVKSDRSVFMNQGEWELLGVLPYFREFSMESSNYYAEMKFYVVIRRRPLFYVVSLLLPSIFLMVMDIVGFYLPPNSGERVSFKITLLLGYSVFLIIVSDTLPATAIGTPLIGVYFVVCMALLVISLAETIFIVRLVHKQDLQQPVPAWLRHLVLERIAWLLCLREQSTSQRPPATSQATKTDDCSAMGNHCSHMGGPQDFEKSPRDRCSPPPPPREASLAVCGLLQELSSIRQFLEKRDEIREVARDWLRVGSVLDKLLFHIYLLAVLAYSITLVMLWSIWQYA
Chain of 5HT6 receptor (P50406 whole entry): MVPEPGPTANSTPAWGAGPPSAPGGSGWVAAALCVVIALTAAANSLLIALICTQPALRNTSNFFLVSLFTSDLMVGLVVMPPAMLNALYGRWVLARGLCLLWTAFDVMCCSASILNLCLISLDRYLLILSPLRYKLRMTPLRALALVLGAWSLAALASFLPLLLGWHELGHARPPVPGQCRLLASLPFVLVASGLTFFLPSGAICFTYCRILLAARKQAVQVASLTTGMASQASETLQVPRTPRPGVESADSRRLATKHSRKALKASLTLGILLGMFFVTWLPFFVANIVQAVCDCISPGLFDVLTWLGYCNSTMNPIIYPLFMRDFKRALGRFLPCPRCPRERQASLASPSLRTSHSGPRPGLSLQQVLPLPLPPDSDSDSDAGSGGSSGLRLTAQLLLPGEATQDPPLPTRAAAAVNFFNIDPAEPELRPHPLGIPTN

SMILES	Ki D1 (dopamine D1 receptor)	Ki 5HT1e (5HT1e receptor)	Ki 5HT5 (5HT5 receptor)	Ki D3 (dopamine D3 receptor)	Ki 5HT3 (5HT3 receptor)	Ki (5HT2b receptor) [nM]	Ki 5HT7 (5HT7 receptor)	Ki D5 (dopamine D5 receptor)	Ki 5HT1d (5HT1d receptor)	Ki 5HT6 (5HT6 receptor)	Ki Alpha1B [1]	Ki (dopamine D3 receptor) [µM]	Ki (5HT7 receptor) [µM]	Ki 5HT2b (5HT2b receptor)	Ki (dopamine D1 receptor) [µM]
O=C(CN1CCO[C@@H](COc2cccc(Cl)c2)C1)N1CCc2ccccc21 [Compound 22r, (R)-2-(2-((3-chlorophenoxy)methyl)morpholino)-1-(indolin-1-yl)ethanone]	—	—	—	—	—	2360	—	—	—	—	—				
O=C(CN1CCO[C@H](COc2cccc(Cl)c2)C1)N1CCc2ccccc21 [Compound 22s, (S)-2-(2-((3-Chlorophenoxy)methyl)morpholino)-1-(indolin-1-yl)ethanone]	—	—	—	—	—	1100	—	—	—	—	—				
COc1cccc(OC[C@@H]2CN(CC(=O)N3CCc4ccccc43)CCO2)c1 [Compound 24s, (S)-1-(Indolin-1-yl)-2-(2-((3-methoxyphenoxy)methyl)morpholino)ethanone]	—	—	—	—	—	1650	—	—	—	—	—				
Cc1ncccc1OC[C@H]1CN(CCN2CCc3ccccc32)CCO1 [Compound 26r, (R)-4-(2-(Indolin-1-yl)ethyl)-2-(((2-methylpyridin-3-yl)oxy)methyl)morpholine]	—	—	—		—	3170		—	—	—	—	> 10	> 10		
Cc1ncccc1OC[C@@H]1CN(CCN2CCc3ccccc32)CCO1 [Compound 26s, (S)-4-(2-(Indolin-1-yl)ethyl)-2-(((2-methylpyridin-3-yl)oxy)methyl)morpholine]	—	—	—	—	—		—	—	—	—	—			—	
Clc1cncc(OC[C@H]2CN(CCN3CCc4ccccc43)CCO2)c1 [Compound 27r, (R)-2-(((5-Chloropyridin-3-yl)oxy)methyl)-4-(2-(indolin-1-yl)ethyl)morpholine]	—	—	—	—	—	2560	—	—	—	—	—				
Clc1cncc(OC[C@@H]2CN(CCN3CCc4ccccc43)CCO2)c1 [Compound 27s, (S)-2-(((5-Chloropyridin-3-yl)oxy)methyl)-4-(2-(indolin-1-yl)ethyl)morpholine]		—	—	—	—		—	—	—	—	—			—	5.85
Cc1ccc(OC[C@H]2CN(CCN3CCc4ccccc43)CCO2)cn1 [Compound 28r, (R)-4-(2-(Indolin-1-yl)ethyl)-2-(((6-methylpyridin-3-yl)oxy)methyl)morpholine]	—	—	—	—	—		—	—	—	—	—			—	
Cc1ccc(OC[C@@H]2CN(CCN3CCc4ccccc43)CCO2)cn1 [Compound 28s, (S)-4-(2-(Indolin-1-yl)ethyl)-2-(((6-methylpyridin-3-yl)oxy)methyl)morpholine]	—	—	—	—	—		—	—	—	—	—			—	
Cc1ccnc(C)c1OC[C@H]1CN(CCN2CCc3ccccc32)CCO1 [Compound 29r, (R)-2-(((2,4-Dimethylpyridin-3-yl)oxy)methyl)-4-(2-(indolin-1-yl)ethyl)morpholine]	—	—	—	—	—	1330	—	—	—	—	—				
Cc1ncccc1OC[C@@H]1CN(CC(=O)N2c3ccccc3CC2C)CCO1.Cl (some centres unmarked) [Compound 60]		—	—	—	—	4610	—	—	—	—	—				> 10
Cc1ncccc1OC[C@@H]1CN(CC(=O)N2c3ccccc3C[C@H]2C)CCO1 [Compound 61]		—	—	—	—		—	—	—	—	—			—	> 10
Cc1ncccc1OC[C@H]1CN(CC(=O)N2c3ccccc3CC2C)CCO1 (some centres unmarked) [Compound 62]	—	—	—	—	—	5180	—	—	—	—	—				
